Results taken from EP0908457B1, “3-(1,2-benzisothiazol- and isoxazol-5-Y1)-2,4(1H,3H)-pyrimidinedione or thione and 3-(1,2-benzisothiazol- and isoxazol-5-y1)-4(3H)-pyrimidinone or thione herbicidal agents” (BASF AKTIENGESELLSCHAFT, priority 1997, dated 1999).

What was measured:
[1] = test system: Echinochloa oryzoides (Ard.) Fritsch.; experiment: Preemergence weed control under flooded paddy conditions, ECHORC (Watergrass (Calif.)); type: in vivo; details: preemergence, flooded paddy; for ECHORC herbicidal rating: rated three to four weeks after treatment; for herbicidal effect rating, ECHORC: rated 3-4 weeks after treatment
Cyperus iria = experiment: Preemergence weed control under flooded paddy conditions, CYPIR (Rice Flatsedge); type: in vivo; details: preemergence, flooded paddy; for CYPIR herbicidal rating: rated three to four weeks after treatment; for herbicidal effect rating, CYPIR: rated 3-4 weeks after treatment
[2] = test system: Cyperus serotinus, Rottb.; experiment: Preemergence weed control under flooded paddy conditions, CYPSE (Flatsedge); type: in vivo; details: preemergence; for CYPSE herbicidal rating: rated three to four weeks after treatment; for herbicidal effect rating, CYPSE: rated 3-4 weeks after treatment
[3] = test system: Monochoria vaginalis, Presl.; experiment: Preemergence weed control under flooded paddy conditions, MOOVA (Monochoria); type: in vivo; details: preemergence, flooded paddy; for MOOVA herbicidal rating: rated three to four weeks after treatment; for herbicidal effect rating, MOOVA: rated 3-4 weeks after treatment
Sagittaria pygmaea, L. = experiment: Preemergence weed control under flooded paddy conditions, SAGPY (Arrowhead (Pygmaea)); type: in vivo; details: preemergence, flooded paddy; for SAGPY herbicidal rating: rated three to four weeks after treatment; for herbicidal effect rating, SAGPY: rated 3-4 weeks after treatment
[4] = test system: Oryza sativa, (L.) Tebonnet; experiment: Rice tolerance to post-transplant applications under flooded paddy conditions (Example 187), ORYSAT (Rice, Tebonnet); details: for ORYSAT herbicidal rating (rice tolerance): rated three to four weeks after treatment; for herbicidal effect rating ORYSAT: rated 3-4 weeks after treatment; for herbicidal effect rating ORYSAT: meaning of each grade not given here

## Cc1ccc(OC(C)(C)C(=O)O)c(-c2nsc3ccc(-n4c(=O)cc(C(F)(F)F)n(C)c4=O)cc23)c1 [Example 515, Propionic acid, 2-{{2-{5-[3,6-dihydro-3-methyl-2,6-dioxo-4-(trifluoromethyl)-1(2H)-pyrimidinyl]-1,2-benzisothiazol-3-yl}-p-tolyl}oxy}-2-methyl-]
[1]; 0.0320 kg/ha
  ECHORC herbicidal rating: 2.0
[1]; 0.0620 kg/ha
  ECHORC herbicidal rating: 6.0
[1]; 0.1250 kg/ha
  ECHORC herbicidal rating: 8.0
[1]; 0.2500 kg/ha
  ECHORC herbicidal rating: 9.0
Cyperus iria; 0.0320 kg/ha
  CYPIR herbicidal rating: 0.0
Cyperus iria; 0.0620 kg/ha
  CYPIR herbicidal rating: 2.0
Cyperus iria; 0.1250 kg/ha
  CYPIR herbicidal rating: 4.0
Cyperus iria; 0.2500 kg/ha
  CYPIR herbicidal rating: 7.0
[2]; 0.0320 kg/ha
  CYPSE herbicidal rating: 0.0
[2]; 0.0620 kg/ha
  CYPSE herbicidal rating: 0.0
[2]; 0.1250 kg/ha
  CYPSE herbicidal rating: 0.0
[2]; 0.2500 kg/ha
  CYPSE herbicidal rating: 0.0
[3]; 0.0320 kg/ha
  MOOVA herbicidal rating: 9.0
[3]; 0.0620 kg/ha
  MOOVA herbicidal rating: 9.0
[3]; 0.1250 kg/ha
  MOOVA herbicidal rating: 9.0
[3]; 0.2500 kg/ha
  MOOVA herbicidal rating: 9.0
Sagittaria pygmaea, L.; 0.0320 kg/ha
  SAGPY herbicidal rating: 0.0
Sagittaria pygmaea, L.; 0.0620 kg/ha
  SAGPY herbicidal rating: 0.0
Sagittaria pygmaea, L.; 0.1250 kg/ha
  SAGPY herbicidal rating: 0.0
Sagittaria pygmaea, L.; 0.2500 kg/ha
  SAGPY herbicidal rating: 0.0
[4]; 0.0320 kg/ha
  ORYSAT herbicidal rating (rice tolerance): 0.0
[4]; 0.0620 kg/ha
  ORYSAT herbicidal rating (rice tolerance): 2.0
[4]; 0.1250 kg/ha
  ORYSAT herbicidal rating (rice tolerance): 4.0
[4]; 0.2500 kg/ha
  ORYSAT herbicidal rating (rice tolerance): 6.0

## Cc1nsc2ccc(-n3c(=O)cc(C(F)(F)F)n(CCF)c3=O)cc12 [Example 516, 2,4(1H,3H)-Pyrimidinedione, 1-(2-fluoroethyl)-3-(3-methyl-1,2-benzisothiazol-5-yl)-6-(trifluoromethyl)-]
[1]; Rate 0.0320 kg/ha
  herbicidal effect rating, ECHORC: 0.0
[1]; Rate 0.0620 kg/ha
  herbicidal effect rating, ECHORC: 0.0
[1]; Rate 0.1250 kg/ha
  herbicidal effect rating, ECHORC: 0.0
[1]; Rate 0.2500 kg/ha
  herbicidal effect rating, ECHORC: 0.0
Cyperus iria; Rate 0.0320 kg/ha
  herbicidal effect rating, CYPIR: 0.0
Cyperus iria; Rate 0.0620 kg/ha
  herbicidal effect rating, CYPIR: 0.0
Cyperus iria; Rate 0.1250 kg/ha
  herbicidal effect rating, CYPIR: 0.0
Cyperus iria; Rate 0.2500 kg/ha
  herbicidal effect rating, CYPIR: 2.0
[2]; Rate 0.0320 kg/ha
  herbicidal effect rating, CYPSE: 0.0
[2]; Rate 0.0620 kg/ha
  herbicidal effect rating, CYPSE: 0.0
[2]; Rate 0.1250 kg/ha
  herbicidal effect rating, CYPSE: 0.0
[2]; Rate 0.2500 kg/ha
  herbicidal effect rating, CYPSE: 0.0
[3]; Rate 0.0320 kg/ha
  herbicidal effect rating, MOOVA: 4.0
[3]; Rate 0.0620 kg/ha
  herbicidal effect rating, MOOVA: 6.0
[3]; Rate 0.1250 kg/ha
  herbicidal effect rating, MOOVA: 8.0
[3]; Rate 0.2500 kg/ha
  herbicidal effect rating, MOOVA: 9.0
Sagittaria pygmaea, L.; Rate 0.0320 kg/ha
  herbicidal effect rating, SAGPY: 0.0
Sagittaria pygmaea, L.; Rate 0.0620 kg/ha
  herbicidal effect rating, SAGPY: 0.0
Sagittaria pygmaea, L.; Rate 0.1250 kg/ha
  herbicidal effect rating, SAGPY: 0.0
Sagittaria pygmaea, L.; Rate 0.2500 kg/ha
  herbicidal effect rating, SAGPY: 0.0
[4]; Rate 0.0320 kg/ha
  herbicidal effect rating ORYSAT: 0.0
[4]; Rate 0.0620 kg/ha
  herbicidal effect rating ORYSAT: 1.0
[4]; Rate 0.1250 kg/ha
  herbicidal effect rating ORYSAT: 2.0
[4]; Rate 0.2500 kg/ha
  herbicidal effect rating ORYSAT: 3.0

## CSCCCCOC(=O)COc1ccc(C)cc1-c1nsc2ccc(-n3c(=O)cc(C(F)(F)F)n(C)c3=O)cc12 [Example 518, Acetic acid, {{2-{5-[3,6-dihydro-3-methyl-2,6-dioxo-4-(trifluoromethyl)-1(2H)-pyrimidinyl]-1,2-benzisothiazol-3-yl}-p-tolyl}oxy}-, 4-(methylthio)butyl ester]
[1]; Rate 0.0320 kg/ha
  herbicidal effect rating, ECHORC: 0.0
[1]; Rate 0.0620 kg/ha
  herbicidal effect rating, ECHORC: 2.0
[1]; Rate 0.1250 kg/ha
  herbicidal effect rating, ECHORC: 4.0
[1]; Rate 0.2500 kg/ha
  herbicidal effect rating, ECHORC: 7.0
Cyperus iria; Rate 0.0320 kg/ha
  herbicidal effect rating, CYPIR: 0.0
Cyperus iria; Rate 0.0620 kg/ha
  herbicidal effect rating, CYPIR: 2.0
Cyperus iria; Rate 0.1250 kg/ha
  herbicidal effect rating, CYPIR: 2.0
Cyperus iria; Rate 0.2500 kg/ha
  herbicidal effect rating, CYPIR: 4.0
[2]; Rate 0.0320 kg/ha
  herbicidal effect rating, CYPSE: 0.0
[2]; Rate 0.0620 kg/ha
  herbicidal effect rating, CYPSE: 0.0
[2]; Rate 0.1250 kg/ha
  herbicidal effect rating, CYPSE: 0.0
[2]; Rate 0.2500 kg/ha
  herbicidal effect rating, CYPSE: 0.0
[3]; Rate 0.0320 kg/ha
  herbicidal effect rating, MOOVA: 4.0
[3]; Rate 0.0620 kg/ha
  herbicidal effect rating, MOOVA: 7.0
[3]; Rate 0.1250 kg/ha
  herbicidal effect rating, MOOVA: 9.0
[3]; Rate 0.2500 kg/ha
  herbicidal effect rating, MOOVA: 9.0
Sagittaria pygmaea, L.; Rate 0.0320 kg/ha
  herbicidal effect rating, SAGPY: 0.0
Sagittaria pygmaea, L.; Rate 0.0620 kg/ha
  herbicidal effect rating, SAGPY: 0.0
Sagittaria pygmaea, L.; Rate 0.1250 kg/ha
  herbicidal effect rating, SAGPY: 0.0
Sagittaria pygmaea, L.; Rate 0.2500 kg/ha
  herbicidal effect rating, SAGPY: 0.0
[4]; Rate 0.0320 kg/ha
  herbicidal effect rating ORYSAT: 1.0
[4]; Rate 0.0620 kg/ha
  herbicidal effect rating ORYSAT: 2.0
[4]; Rate 0.1250 kg/ha
  herbicidal effect rating ORYSAT: 4.0
[4]; Rate 0.2500 kg/ha
  herbicidal effect rating ORYSAT: 4.0

## CCCCCCCCCOC(=O)COc1ccc(C)cc1-c1nsc2ccc(-n3c(=O)cc(C(F)(F)F)n(C)c3=O)cc12 [Example 519, Acetic acid, {{2-{5-[3,6-dihydro-3-methyl-2,6-dioxo-4-(trifluoromethyl)-1(2H)-pyrimidinyl]-1,2-benzisothiazol-3-yl}-p-tolyl}oxy}-, nonyl ester]
[1]; Rate 0.0320 kg/ha
  herbicidal effect rating, ECHORC: 2.0
[1]; Rate 0.0620 kg/ha
  herbicidal effect rating, ECHORC: 4.0
[1]; Rate 0.1250 kg/ha
  herbicidal effect rating, ECHORC: 6.5
[1]; Rate 0.2500 kg/ha
  herbicidal effect rating, ECHORC: 9.0
Cyperus iria; Rate 0.0320 kg/ha
  herbicidal effect rating, CYPIR: 0.0
Cyperus iria; Rate 0.0620 kg/ha
  herbicidal effect rating, CYPIR: 0.0
Cyperus iria; Rate 0.1250 kg/ha
  herbicidal effect rating, CYPIR: 2.0
Cyperus iria; Rate 0.2500 kg/ha
  herbicidal effect rating, CYPIR: 6.0
[2]; Rate 0.0320 kg/ha
  herbicidal effect rating, CYPSE: 0.0
[2]; Rate 0.0620 kg/ha
  herbicidal effect rating, CYPSE: 0.0
[2]; Rate 0.1250 kg/ha
  herbicidal effect rating, CYPSE: 0.0
[2]; Rate 0.2500 kg/ha
  herbicidal effect rating, CYPSE: 0.0
[3]; Rate 0.0320 kg/ha
  herbicidal effect rating, MOOVA: 9.0
[3]; Rate 0.0620 kg/ha
  herbicidal effect rating, MOOVA: 9.0
[3]; Rate 0.1250 kg/ha
  herbicidal effect rating, MOOVA: 9.0
[3]; Rate 0.2500 kg/ha
  herbicidal effect rating, MOOVA: 9.0
Sagittaria pygmaea, L.; Rate 0.0320 kg/ha
  herbicidal effect rating, SAGPY: 0.0
Sagittaria pygmaea, L.; Rate 0.0620 kg/ha
  herbicidal effect rating, SAGPY: 0.0
Sagittaria pygmaea, L.; Rate 0.1250 kg/ha
  herbicidal effect rating, SAGPY: 0.0
Sagittaria pygmaea, L.; Rate 0.2500 kg/ha
  herbicidal effect rating, SAGPY: 0.0
[4]; Rate 0.0320 kg/ha
  herbicidal effect rating ORYSAT: 2.0
[4]; Rate 0.0620 kg/ha
  herbicidal effect rating ORYSAT: 4.0
[4]; Rate 0.1250 kg/ha
  herbicidal effect rating ORYSAT: 4.5
[4]; Rate 0.2500 kg/ha
  herbicidal effect rating ORYSAT: 4.0
